Consider one compound from patent EP4692091A1, “CA[…], AND PHARMACEUTICAL COMPOSITION, PREPARATION METHOD THEREFOR AND USE THEREOF” (Changchun Genescience Pharmaceutical Co., Ltd., priority 2023, dated 2024).

The test system of one test is MDA-MB-468. Briefly: Inhibition of proliferation of MDA-MB-468 cells by test compounds (CellTiter-Glo, 72 h). Format: cell-based. The conditions noted are these: Homo sapiens, MDA-MB-468, 72 h, MDA-MB-468, 72 h incubation. In outline:
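Cells plated, allowed to adhere, then treated with compounds (final DMSO 0.33%) for 72 h at 37°C. Viability read by CellTiter-Glo luminescence after 30 min at room temperature; IC50 from four-parameter nonlinear fit.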
Background: Cellular ATP, detected with luciferase, serves as a proxy for viable cell number.

The next test relates to SK-BR-3. Briefly: Inhibition of proliferation of SK-BR-3 cells by compounds (CellTiter-Glo, 72 h). The conditions noted are these: Homo sapiens, SK-BR-3, 72 h, SK-BR-3, 72 h incubation. Format: cell-based. In short, it runs like this:
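SK-BR-3 cells plated in 384-well format, allowed to adhere, then exposed to compound (0.33% DMSO final) for 72 h at 37 °C, 5% CO2. Viability read by CellTiter-Glo luminescence; IC50 from four-parameter nonlinear fit.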

Another test deals with CYP1A2 (Homo sapiens, UniProt P05177). The experiment in a line: CYP inhibition in human hepatomicrosomes, CYP1A2.
Sequence of CYP1A2 (P05177 whole entry): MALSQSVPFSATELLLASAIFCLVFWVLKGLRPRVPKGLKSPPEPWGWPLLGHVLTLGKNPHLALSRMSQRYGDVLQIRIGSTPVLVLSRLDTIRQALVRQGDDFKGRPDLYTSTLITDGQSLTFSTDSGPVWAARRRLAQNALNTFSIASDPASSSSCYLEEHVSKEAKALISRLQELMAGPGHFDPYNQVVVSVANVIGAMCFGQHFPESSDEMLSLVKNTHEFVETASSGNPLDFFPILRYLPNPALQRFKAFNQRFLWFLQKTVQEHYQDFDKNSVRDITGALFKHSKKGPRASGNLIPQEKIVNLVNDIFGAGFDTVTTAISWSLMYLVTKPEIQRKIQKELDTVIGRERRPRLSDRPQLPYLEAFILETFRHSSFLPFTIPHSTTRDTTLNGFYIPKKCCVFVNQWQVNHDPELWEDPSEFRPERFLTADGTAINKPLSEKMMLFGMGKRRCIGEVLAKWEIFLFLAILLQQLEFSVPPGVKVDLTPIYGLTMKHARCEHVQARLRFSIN
For a further test, the target named is CYP2D6 (Homo sapiens, UniProt P10635). Briefly: CYP inhibition in human hepatomicrosomes, CYP2D6.
Sequence of CYP2D6 (P10635 whole entry): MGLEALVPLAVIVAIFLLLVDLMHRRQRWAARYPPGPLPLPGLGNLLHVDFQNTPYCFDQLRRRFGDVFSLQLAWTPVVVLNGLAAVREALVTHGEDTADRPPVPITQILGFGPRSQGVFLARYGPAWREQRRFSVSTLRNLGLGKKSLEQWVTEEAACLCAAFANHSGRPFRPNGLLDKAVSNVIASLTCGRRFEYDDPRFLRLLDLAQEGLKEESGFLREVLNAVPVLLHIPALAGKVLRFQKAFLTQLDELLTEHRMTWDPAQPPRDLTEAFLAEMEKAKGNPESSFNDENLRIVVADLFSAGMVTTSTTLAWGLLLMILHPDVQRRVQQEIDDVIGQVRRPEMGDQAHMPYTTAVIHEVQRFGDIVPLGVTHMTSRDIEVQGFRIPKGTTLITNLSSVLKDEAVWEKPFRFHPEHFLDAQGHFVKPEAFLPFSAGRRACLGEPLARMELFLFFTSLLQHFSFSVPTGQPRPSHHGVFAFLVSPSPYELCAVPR

A value given as a limit tells only on which side of the number the result lay.

For the compound `CC[C@@]1(O)C(=O)OCc2c1cc1n(c2=O)Cc2c-1nc1cc(F)c(C)c3c1c2[C@@H](NC(=O)CO)CC3` [Dxd], the IC50 in the test on MDA-MB-468 was 4.6 nM; in the test on SK-BR-3, 11 nM; against CYP1A2, over 30000 nM; against CYP2D6 it was over 30000 nM.

In general, IC50 refers to the concentration at which inhibition is half-maximal. A high value points to a need for much substance.
